The text below walks through data of patent US20080292586A1 (priority 2005, published 2008).

The IC25 is the concentration at which the effect reaches the 25% level. A low value points to an effect from little substance. As a reminder, the IC50 is the concentration needed to halve the response being measured. High values mean lower potency, low ones higher potency. One may read the IC90 as the concentration needed for an effect of 90%. Higher therefore signals weaker potency.

In brackets after ≈: the same amount, converted by molar mass.

In data set [1] the test system is H5N1 Avian influenza virus (A/VN/1203/04). In words: microbe, parasite or virus in culture. The format is cell-based.
The next data set concerns MDBK cells. The note with it: bovine.
[2] abbreviates: Influenza A virus, H5N1, MDBK, 72 h.

`NC(=O)c1ncn([C@@H]2O[C@H](CO)[C@@H](O)[C@H]2O)n1` [Ribavirin]: the IC25 in data set [1] is 1.01 mg/L (≈ 4.14 µM). The IC50 in data set [1] (Influenza A virus, H5N1, MDBK) amounted to 1.96 mg/L (≈ 8.03 µM). In data set [1] (setting [2]), the IC50 turned out to be 1.69 mg/L (≈ 6.92 µM) and the concentration for an effect of 90% (IC90) worked out at 5.01 mg/L (≈ 20.5 µM). Besides, in the data set with MDBK cells, the “cytotoxicity profile (in words)” value is on record as “toxic at concentrations above that which protected 80% of cells from H5N1 infection”.
